Measured values as given in PubChem BioAssay AID1552 (Sanford-Burnham Center for Chemical Genomics, 2009).
Active and inactive are the calls of the source. The rule behind the calls is not given here.

What follows are compounds tested against Ubiquitin-conjugating enzyme E2 N (Homo sapiens) (UniProt P61088) (assay: UBE2N binders by NMR, biophysical, purified protein (AID 1552)). Conditions: NMR binding to purified UBE2N.
Ubiquitin-conjugating enzyme E2 N (Homo sapiens), sequence (P61088 whole entry, looked up): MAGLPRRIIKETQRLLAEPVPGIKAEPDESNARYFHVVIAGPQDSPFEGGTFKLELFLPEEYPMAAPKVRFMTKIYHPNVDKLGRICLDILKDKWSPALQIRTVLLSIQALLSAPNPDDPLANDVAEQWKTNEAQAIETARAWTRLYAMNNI

| Compound | Kd |
| --- | --- |
| Cc1cc(=O)n2nc(-c3ccccc3)sc2n1 | > 4 mM (inactive) |
| O=C(O)c1csc(-c2cccs2)n1 | > 4 mM (inactive) |
| O=S(=O)(CCN1CCCC1)c1ccccc1 | > 4 mM (inactive) |
| COCc1cc(Cl)nc(-c2csc(C)n2)n1 | > 4 mM (inactive) |
| Cn1ccnc1C(O)c1ccccc1 (stereo unspecified) | > 4 mM (inactive) |
| COC(=O)c1c(OC)cc2c(c1C)Oc1c(Cl)c(O)c(Cl)c(C)c1C(=O)O2 | > 4 mM (inactive) |
| CC(=O)c1cnc(Nc2nc(C)c3ccccc3n2)nc1C | > 4 mM (inactive) |
| COc1ccc(-c2oc3ccccc3c(=O)c2O)cc1OC | > 4 mM (inactive) |
| O=C(O)C1CCCCN1Cc1ccccc1 (stereo unspecified) | > 4 mM (inactive) |
| CCCNC(=O)CSc1nnc(C)s1 | > 4 mM (inactive) |
| COc1c(O)cccc1O | > 4 mM (inactive) |
| COC(=O)CC1=Nc2ccccc2NC(=O)C1 | > 4 mM (inactive) |
| COCC(=O)N1CCCc2ccccc21 | > 4 mM (inactive) |
| Cc1onc(-c2ccccc2)c1CO | > 4 mM (inactive) |
| O=C(O)c1cccc2c1OCCO2 | > 4 mM (inactive) |
| Clc1ccc(SCCn2cncn2)cc1 | > 4 mM (inactive) |
| O=C(c1ccco1)N1CCN(Cc2cccc(F)c2)CC1 | > 4 mM (inactive) |
| Cc1nnc(NCCO)[nH]c1=O | > 4 mM (inactive) |
| CC(=O)Nc1nc(-c2cccs2)cs1 | > 4 mM (inactive) |
| NCc1ccc(-c2ccccn2)s1 | > 4 mM (inactive) |
| COc1ccc2c(=O)c(OC)c(-c3ccccc3)oc2c1 | > 4 mM (inactive) |

| Compound | Kd |
| --- | --- |
| NC(=O)CC(=O)NC12CC3CC(CC(C3)C1)C2 | > 4 mM (inactive) |
| Cc1cc(=O)c2ccccc2n1CC(N)=O | > 4 mM (inactive) |
| CC1C[C@H]2CC(=O)[C@H]3CCCN4CCC[C@H]2[C@]34C1 (stereo partly specified) | > 4 mM (inactive) |
| CCn1nnnc1Oc1ccc(Cl)cc1 | > 4 mM (inactive) |
| C=C[C@@](C)(O)CCC1C(=C)CCC2[C@@](C)(CO)CCC[C@]12C (stereo partly specified) | > 4 mM (inactive) |
| Clc1ccccc1-c1nc(-c2cccnc2)no1 | > 4 mM (inactive) |
| O=C(O)C(Cc1cnc[nH]1)N1C(=O)c2ccccc2C1=O (stereo unspecified) | > 4 mM (inactive) |
| COc1ccc(S(N)(=O)=O)cc1 | > 4 mM (inactive) |
| Nn1cnn2c(SCc3ccccc3)nnc12 | > 4 mM (inactive) |
| CC(=O)Nc1ccc(N2C(=O)C=CC2=O)cc1C | > 4 mM (inactive) |
| CC(C)(C)c1cc(NC(=O)c2cccnc2)no1 | > 4 mM (inactive) |
| O=C1CNc2cc(C(=O)O)ccc2N1 | > 4 mM (inactive) |
| Oc1cc(O)cc(/C=C/c2ccccc2)c1 | > 4 mM (inactive) |
| Cc1cc(=O)oc2cc3c(cc12)OCCO3 | > 4 mM (inactive) |
| CCOC(=O)Cc1cc(=O)n2[nH]c(C)cc2n1 | > 4 mM (inactive) |
| Cc1cccc(NC(=O)c2ccc(=O)[nH]n2)c1 | > 4 mM (inactive) |
| Cc1ccccc1NC(=O)C1CCC(=O)N1 (stereo unspecified) | > 4 mM (inactive) |
| COCc1cc(=O)oc2cc(O)c(Cl)cc12 | > 4 mM (inactive) |
| CC(=O)N/N=C(\C)c1cccc(N)c1 | > 4 mM (inactive) |
| Cc1nnc(SCc2ccc(F)cc2)s1 | > 4 mM (inactive) |
| O=C1C=C(O)c2ccccc2C1=O | > 4 mM (inactive) |

| Compound | Kd |
| --- | --- |
| Cc1csc2nc3ccccc3c(=O)n12 | > 4 mM (inactive) |
| O=C1CSC(=Nc2ccc(Cl)cc2)N1 | > 4 mM (inactive) |
| O=C(O)c1ccc(-c2cccs2)s1 | > 4 mM (inactive) |
| O=C1CCCC(=O)N1c1ccc(O)cc1 | > 4 mM (inactive) |
| O=C(Nc1nnc(-c2ccncc2)o1)c1cccs1 | > 4 mM (inactive) |
| O=S1(=O)CCC(NC(=S)Nc2ccc(O)cc2)C1 (stereo unspecified) | > 4 mM (inactive) |
| O=[N+]([O-])c1ccc2c(c1)N([O-])C1(CCCCC1)[N+]2=O | > 4 mM (inactive) |
| OC1CCN(C(=S)NC2CC2)CC1 | > 4 mM (inactive) |
| COC(=O)C[C@H]1C2(C)CC34OC5(C)O[C@@]6([C@H](OC(C)=O)C(OC(C)=O)[C@]7(C)C(/C(=C(/O)C(C)C)C(=O)O[C@H]7c7ccoc7)[C@@]6(O5)[C@H](OC(C)=O)[C@@]3(O)C2OC(=O)C(C)C)[C@]14C (stereo partly specified) | > 4 mM (inactive) |
| CCC1C(=O)OCC1Cc1cncn1C (stereo unspecified) | > 4 mM (inactive) |
| C=CC1=C(C)/C(=C/c2[nH]c(Cc3[nH]c(/C=C4\NC(=O)C(C)=C4C=C)c(C)c3CCC(=O)O)c(CCC(=O)O)c2C)NC1=O | > 4 mM (inactive) |
| O=C(O)C1Cc2ccccc2O1 (stereo unspecified) | > 4 mM (inactive) |
| CC1(C)CC(=O)c2cnn(-c3nc4ccccc4[nH]3)c2C1 | > 4 mM (inactive) |
| Cn1c2ccccc2n2c(=S)[nH]nc12 | > 4 mM (inactive) |
| COCC(=O)Nc1cccc2ccccc12 | > 4 mM (inactive) |
| O=C1CN(C(=O)c2ccccc2F)c2ccccc2N1 | > 4 mM (inactive) |
| Cc1ccc(S(=O)(=O)CC(=O)N(C)C)cc1 | > 4 mM (inactive) |
| NCc1cccc(-n2cccc2)c1 | > 4 mM (inactive) |
| COc1cc(O)c(C)c(O)c1 | > 4 mM (inactive) |
